Measured values published in ChEMBL document CHEMBL5465560, “Selectivity Literature for EUbOPEN Chemogenomic Library” (2024).

Tests used:
[1] = tested on: Tyrosine-protein kinase ABL1 (Homo sapiens), P00519 [Q252H]; settings: at 10 µM
[2] = biological target: T1, cGMP-dependent protein kinase 2 (Homo sapiens) (UniProt Q13237); assay: Selectivity interaction (Ambit KINOMEscan and KiNATiv profiling in Jurkat cells) EUB0000090b PRKG2; type: cell-based; settings: at 1 µM
T1 sequence (whole entry): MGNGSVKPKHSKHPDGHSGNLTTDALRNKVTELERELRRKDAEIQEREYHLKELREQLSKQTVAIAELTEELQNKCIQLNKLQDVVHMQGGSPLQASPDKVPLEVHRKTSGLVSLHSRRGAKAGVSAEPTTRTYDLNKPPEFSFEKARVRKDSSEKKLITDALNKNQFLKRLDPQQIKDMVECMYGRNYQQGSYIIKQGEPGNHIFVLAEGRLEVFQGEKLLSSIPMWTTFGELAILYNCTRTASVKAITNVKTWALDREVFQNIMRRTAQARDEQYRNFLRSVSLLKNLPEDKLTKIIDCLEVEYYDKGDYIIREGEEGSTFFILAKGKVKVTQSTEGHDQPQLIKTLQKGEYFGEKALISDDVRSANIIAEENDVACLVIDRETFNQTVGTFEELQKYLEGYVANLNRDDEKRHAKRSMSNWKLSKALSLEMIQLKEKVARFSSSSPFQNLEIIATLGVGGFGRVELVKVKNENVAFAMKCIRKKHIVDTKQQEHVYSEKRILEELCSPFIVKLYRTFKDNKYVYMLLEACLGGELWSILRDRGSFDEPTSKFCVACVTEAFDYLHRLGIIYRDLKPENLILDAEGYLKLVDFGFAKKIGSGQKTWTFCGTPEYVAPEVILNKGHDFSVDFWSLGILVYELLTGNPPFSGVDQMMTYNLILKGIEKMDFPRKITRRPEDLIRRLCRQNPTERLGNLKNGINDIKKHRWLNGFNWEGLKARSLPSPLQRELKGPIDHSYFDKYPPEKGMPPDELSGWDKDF

[3] = biological target: Hepatocyte growth factor receptor (Homo sapiens, UniProt P08581); assay: Selectivity interaction (Kinase panel (enzymatic assay)) EUB0000595a MET
[4] = biological target: Serine/threonine-protein kinase Nek7 (Homo sapiens) (UniProt Q8TDX7); assay: Selectivity interaction (Upstate Kinase Profiler service (Millipore)) EUB0000056c NEK7; settings: at 1 µM
[5] = biological target: T2, Serine/threonine-protein kinase 17A (Homo sapiens) (UniProt Q9UEE5); assay: Selectivity interaction (KinomeScan (DiscoverX)) EUB0000045b STK17A
T2 sequence (whole entry): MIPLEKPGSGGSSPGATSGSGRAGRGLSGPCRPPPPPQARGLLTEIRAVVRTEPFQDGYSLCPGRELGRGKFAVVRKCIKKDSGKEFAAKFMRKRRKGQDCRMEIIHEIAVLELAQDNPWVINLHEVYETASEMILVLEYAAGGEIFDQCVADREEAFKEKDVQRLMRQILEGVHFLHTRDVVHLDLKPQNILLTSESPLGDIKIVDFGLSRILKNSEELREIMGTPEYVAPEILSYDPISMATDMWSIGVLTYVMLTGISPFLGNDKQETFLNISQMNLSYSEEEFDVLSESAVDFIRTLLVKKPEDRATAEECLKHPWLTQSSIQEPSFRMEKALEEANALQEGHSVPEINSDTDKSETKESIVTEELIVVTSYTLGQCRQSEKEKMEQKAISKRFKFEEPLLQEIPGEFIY

[6] = biological target: eIF-2-alpha kinase GCN2 (Homo sapiens) (UniProt Q9P2K8); assay: Selectivity interaction (ActivX KiNativ screen (ex vivo kinase selectivity in human PBMCs)) EUB0001619a EIF2AK4; type: cell-based; settings: PBMC, at 1 µM
[7] = biological target: RAC-alpha serine/threonine-protein kinase (Homo sapiens, UniProt P31749); assay: Selectivity interaction (ActivX KiNativ screen (ex vivo kinase selectivity in human PBMCs)) EUB0001619a AKT1; type: cell-based; settings: PBMC, at 1 µM
[8] = biological target: T3, Mitogen-activated protein kinase kinase kinase kinase 3 (Homo sapiens) (UniProt Q8IVH8); assay: Selectivity interaction (KinomeScan (DiscoverX)) EUB0000607a MAP4K3; settings: at 10 µM
T3 sequence (whole entry): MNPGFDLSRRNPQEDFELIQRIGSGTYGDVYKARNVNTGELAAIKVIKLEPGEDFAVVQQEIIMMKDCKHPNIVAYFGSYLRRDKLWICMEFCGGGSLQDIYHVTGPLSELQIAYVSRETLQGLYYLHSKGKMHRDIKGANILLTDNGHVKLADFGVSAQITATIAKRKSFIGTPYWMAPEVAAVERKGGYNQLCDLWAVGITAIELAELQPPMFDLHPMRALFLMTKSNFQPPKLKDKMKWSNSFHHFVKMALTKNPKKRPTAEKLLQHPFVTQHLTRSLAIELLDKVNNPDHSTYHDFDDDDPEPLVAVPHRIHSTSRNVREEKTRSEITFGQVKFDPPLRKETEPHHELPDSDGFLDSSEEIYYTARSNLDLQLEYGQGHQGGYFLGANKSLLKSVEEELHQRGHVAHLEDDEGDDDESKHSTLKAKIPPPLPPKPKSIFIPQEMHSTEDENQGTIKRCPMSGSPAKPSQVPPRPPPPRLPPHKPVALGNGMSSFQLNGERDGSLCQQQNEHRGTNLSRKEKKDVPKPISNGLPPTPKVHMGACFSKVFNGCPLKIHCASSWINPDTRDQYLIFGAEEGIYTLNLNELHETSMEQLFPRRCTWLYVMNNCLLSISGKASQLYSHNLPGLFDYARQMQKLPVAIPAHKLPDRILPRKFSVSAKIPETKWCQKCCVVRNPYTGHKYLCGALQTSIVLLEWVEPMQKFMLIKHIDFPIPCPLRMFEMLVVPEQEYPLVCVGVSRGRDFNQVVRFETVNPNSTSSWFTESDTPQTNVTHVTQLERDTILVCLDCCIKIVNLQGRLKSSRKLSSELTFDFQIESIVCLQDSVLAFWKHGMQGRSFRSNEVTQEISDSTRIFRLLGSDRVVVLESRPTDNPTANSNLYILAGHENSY

[9] = biological target: Serine/threonine-protein kinase N1 (Homo sapiens, UniProt Q16512); assay: Selectivity interaction (KinomeScan (DiscoverX)) EUB0000666a PKN1; settings: at 10 µM
Serine/threonine-protein kinase N1, sequence (Q16512 2-942 limits assumed): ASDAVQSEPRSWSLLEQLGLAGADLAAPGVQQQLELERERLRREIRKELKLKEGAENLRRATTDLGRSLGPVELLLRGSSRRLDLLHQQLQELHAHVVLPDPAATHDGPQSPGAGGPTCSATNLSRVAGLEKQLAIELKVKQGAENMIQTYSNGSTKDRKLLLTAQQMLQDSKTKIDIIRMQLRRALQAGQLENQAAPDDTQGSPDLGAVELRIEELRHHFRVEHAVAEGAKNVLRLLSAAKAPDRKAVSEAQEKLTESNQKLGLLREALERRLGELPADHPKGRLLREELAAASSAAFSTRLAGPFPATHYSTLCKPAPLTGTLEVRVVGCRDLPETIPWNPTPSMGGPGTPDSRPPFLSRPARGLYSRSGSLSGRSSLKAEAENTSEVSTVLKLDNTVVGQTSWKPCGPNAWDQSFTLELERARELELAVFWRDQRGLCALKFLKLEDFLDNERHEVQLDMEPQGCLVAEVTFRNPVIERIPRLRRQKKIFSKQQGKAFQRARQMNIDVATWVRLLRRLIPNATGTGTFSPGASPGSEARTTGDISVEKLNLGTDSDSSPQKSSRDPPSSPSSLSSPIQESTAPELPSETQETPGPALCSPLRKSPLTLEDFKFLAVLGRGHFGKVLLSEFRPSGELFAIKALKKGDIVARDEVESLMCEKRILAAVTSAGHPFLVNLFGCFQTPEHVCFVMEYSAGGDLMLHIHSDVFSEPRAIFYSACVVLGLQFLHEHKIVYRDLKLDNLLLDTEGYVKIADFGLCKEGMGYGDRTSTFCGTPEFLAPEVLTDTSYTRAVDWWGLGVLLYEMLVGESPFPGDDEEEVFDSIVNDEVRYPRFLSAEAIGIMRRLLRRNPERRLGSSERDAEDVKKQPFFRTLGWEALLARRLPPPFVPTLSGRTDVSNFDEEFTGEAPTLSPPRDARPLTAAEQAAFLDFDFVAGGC

Hepatocyte growth factor receptor, sequence (P08581 whole entry): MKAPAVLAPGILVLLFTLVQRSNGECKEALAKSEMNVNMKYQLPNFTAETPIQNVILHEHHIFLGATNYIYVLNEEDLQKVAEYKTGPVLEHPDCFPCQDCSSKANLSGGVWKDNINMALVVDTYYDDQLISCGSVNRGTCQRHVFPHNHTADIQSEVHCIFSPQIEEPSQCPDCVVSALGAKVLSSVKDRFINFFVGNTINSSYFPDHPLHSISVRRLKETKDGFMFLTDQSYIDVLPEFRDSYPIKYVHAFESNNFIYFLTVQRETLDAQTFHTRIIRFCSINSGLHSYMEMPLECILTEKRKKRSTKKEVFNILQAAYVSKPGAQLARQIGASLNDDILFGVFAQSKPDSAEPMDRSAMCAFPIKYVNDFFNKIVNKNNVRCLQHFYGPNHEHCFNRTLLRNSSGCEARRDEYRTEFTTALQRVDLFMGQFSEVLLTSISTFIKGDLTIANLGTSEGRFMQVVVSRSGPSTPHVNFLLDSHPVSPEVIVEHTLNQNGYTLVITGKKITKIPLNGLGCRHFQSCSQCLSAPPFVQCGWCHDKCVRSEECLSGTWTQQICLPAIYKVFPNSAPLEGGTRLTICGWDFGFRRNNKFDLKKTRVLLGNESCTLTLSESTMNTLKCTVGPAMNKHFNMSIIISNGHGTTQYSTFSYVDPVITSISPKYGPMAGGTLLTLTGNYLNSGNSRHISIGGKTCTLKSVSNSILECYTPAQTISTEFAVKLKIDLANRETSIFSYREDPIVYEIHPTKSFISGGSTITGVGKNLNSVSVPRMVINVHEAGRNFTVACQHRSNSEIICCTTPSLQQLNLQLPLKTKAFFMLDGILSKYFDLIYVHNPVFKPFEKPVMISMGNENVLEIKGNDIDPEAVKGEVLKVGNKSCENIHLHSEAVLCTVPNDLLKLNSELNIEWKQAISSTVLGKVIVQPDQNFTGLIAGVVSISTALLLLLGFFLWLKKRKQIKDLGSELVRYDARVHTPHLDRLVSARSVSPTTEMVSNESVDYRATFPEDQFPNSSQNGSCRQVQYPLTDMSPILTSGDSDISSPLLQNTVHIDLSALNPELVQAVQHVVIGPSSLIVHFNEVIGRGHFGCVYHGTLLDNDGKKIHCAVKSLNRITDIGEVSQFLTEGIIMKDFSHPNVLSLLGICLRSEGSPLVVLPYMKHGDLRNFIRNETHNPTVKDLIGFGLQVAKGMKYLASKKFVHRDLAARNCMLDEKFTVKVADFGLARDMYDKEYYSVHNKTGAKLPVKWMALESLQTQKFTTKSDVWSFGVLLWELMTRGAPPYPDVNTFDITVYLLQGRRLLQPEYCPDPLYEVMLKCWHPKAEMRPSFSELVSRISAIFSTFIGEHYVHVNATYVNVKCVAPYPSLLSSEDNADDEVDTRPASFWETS
Serine/threonine-protein kinase Nek7 (Homo sapiens), sequence (Q8TDX7 whole entry, looked up): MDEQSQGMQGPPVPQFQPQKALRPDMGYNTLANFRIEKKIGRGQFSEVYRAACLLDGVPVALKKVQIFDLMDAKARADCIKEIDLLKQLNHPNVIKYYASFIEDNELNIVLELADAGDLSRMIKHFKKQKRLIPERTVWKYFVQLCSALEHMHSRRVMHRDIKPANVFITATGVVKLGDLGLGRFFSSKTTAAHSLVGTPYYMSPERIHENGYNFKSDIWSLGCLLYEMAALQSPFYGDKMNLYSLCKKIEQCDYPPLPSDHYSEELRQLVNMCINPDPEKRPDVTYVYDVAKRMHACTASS
RAC-alpha serine/threonine-protein kinase, sequence (P31749 whole entry): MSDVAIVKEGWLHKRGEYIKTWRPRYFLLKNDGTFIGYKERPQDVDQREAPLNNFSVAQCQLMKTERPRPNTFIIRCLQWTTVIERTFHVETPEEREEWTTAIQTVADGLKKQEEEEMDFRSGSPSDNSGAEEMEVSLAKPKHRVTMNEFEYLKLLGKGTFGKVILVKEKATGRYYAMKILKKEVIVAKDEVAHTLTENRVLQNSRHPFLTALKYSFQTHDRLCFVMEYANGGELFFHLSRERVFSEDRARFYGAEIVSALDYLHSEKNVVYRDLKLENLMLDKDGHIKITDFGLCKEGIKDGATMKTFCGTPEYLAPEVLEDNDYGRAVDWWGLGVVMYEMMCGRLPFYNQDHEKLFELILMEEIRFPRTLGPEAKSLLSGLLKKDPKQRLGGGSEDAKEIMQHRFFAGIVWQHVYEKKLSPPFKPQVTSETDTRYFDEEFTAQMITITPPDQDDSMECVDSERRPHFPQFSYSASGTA
eIF-2-alpha kinase GCN2 (Homo sapiens), sequence (Q9P2K8 whole entry): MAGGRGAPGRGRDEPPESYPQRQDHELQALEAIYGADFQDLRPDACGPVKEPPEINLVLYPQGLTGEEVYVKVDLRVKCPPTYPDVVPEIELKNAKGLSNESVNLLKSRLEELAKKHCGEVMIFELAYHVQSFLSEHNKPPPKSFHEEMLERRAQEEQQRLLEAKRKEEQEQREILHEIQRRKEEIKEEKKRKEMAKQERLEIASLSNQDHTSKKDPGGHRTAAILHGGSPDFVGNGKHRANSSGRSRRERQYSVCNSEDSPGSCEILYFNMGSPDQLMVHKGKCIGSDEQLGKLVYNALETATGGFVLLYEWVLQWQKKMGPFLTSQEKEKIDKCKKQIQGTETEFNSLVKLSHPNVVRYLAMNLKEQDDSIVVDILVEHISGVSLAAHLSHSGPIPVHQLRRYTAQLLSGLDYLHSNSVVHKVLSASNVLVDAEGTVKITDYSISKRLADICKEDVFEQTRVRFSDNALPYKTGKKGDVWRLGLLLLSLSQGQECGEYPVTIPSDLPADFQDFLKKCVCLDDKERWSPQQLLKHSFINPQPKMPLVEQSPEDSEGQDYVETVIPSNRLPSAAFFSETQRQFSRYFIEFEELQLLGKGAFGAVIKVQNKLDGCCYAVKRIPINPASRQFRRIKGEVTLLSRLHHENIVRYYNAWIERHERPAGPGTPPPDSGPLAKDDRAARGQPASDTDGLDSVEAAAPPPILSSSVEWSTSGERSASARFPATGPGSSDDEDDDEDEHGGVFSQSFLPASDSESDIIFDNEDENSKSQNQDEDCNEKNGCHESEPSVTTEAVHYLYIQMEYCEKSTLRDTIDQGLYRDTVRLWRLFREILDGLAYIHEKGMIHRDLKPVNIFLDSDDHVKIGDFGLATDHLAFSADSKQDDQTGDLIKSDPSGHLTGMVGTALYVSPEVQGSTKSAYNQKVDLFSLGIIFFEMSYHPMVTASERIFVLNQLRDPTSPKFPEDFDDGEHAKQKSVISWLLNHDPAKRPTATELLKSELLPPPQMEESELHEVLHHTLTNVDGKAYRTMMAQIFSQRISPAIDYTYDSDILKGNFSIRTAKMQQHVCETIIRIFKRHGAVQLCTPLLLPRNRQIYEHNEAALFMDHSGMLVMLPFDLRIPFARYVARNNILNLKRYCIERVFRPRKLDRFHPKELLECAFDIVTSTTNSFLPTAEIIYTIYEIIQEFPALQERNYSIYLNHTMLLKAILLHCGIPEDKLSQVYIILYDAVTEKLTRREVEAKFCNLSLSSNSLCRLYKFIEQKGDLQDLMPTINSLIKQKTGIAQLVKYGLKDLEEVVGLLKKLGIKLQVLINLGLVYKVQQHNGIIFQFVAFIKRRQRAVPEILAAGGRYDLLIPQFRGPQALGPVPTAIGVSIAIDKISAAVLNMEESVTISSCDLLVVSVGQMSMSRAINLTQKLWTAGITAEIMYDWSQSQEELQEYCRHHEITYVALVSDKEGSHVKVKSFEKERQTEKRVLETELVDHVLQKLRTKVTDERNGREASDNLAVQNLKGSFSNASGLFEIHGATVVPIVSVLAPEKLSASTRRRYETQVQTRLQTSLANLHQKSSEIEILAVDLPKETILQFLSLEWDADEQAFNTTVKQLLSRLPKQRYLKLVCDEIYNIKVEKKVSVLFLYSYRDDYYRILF

Cc1cc([C@@H](C)Nc2ccccc2C(=O)O)c2nc(N3CCOCC3)cc(=O)n2c1 [AZD-6482]
% of control [1]: 100%

CN(C)C/C=C/C(=O)Nc1ccc(C(=O)N2CCCC(Nc3ncc(Cl)c(-c4c[nH]c5ccccc45)n3)C2)cc1 (stereo not given)
% of control [2]: 95%

COCC(=O)NC/C=C/c1ccc2ncnc(Nc3ccc(Oc4ccc(C)nc4)c(C)c3)c2c1 [CP-724714]
IC50 [3]: > 10 µM

Cc1ccc(-c2ccc3c(ccc4sc5c(c43)NC[C@@H](C)NC5=O)n2)cn1
% of inhibition [4]: -3%

C=CC(=O)Nc1cc(-n2c(=O)ccc3cnc4ccc(-c5ccc(NS(C)(=O)=O)cc5)cc4c32)ccc1C
% of control ([5]; at 1 µM): 100% | % of control ([5]; at 10 µM): 100%

N#Cc1cccc(-c2c[nH]c3ncnc(N4CCOCC4)c23)c1
% of inhibition [6]: 22% | % of inhibition [7]: -6%

CNC(=O)Nc1ccc(-c2nc(N3CC4CCC(C3)O4)c3cnn(C4CCC5(CC4)OCCO5)c3n2)cc1
% of control [8]: 94%

O=C(NOC[C@H](O)CO)c1ccc(F)c(F)c1Nc1ccc(I)cc1F
% of control [9]: 100%
